# Results published in PMC4342408 (Structure(London, England:1993), 2014).
# T1: HYPE (Homo sapiens, UniProt Q9BVA6, E234G)
# T1 construct: gene FICD; 172–434
# T1 sequence (Q9BVA6 172-434 E234G): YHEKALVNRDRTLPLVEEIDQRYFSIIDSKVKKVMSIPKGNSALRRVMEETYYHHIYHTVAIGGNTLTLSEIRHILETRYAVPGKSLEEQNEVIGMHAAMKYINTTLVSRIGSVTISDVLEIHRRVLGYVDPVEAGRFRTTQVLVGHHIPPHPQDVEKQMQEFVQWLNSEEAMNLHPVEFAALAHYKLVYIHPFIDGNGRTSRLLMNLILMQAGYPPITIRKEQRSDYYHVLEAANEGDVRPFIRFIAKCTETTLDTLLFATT
# T2: HYPE (Homo sapiens, UniProt Q9BVA6, E234G)
# T2 sequence (Q9BVA6 103-445 E234G): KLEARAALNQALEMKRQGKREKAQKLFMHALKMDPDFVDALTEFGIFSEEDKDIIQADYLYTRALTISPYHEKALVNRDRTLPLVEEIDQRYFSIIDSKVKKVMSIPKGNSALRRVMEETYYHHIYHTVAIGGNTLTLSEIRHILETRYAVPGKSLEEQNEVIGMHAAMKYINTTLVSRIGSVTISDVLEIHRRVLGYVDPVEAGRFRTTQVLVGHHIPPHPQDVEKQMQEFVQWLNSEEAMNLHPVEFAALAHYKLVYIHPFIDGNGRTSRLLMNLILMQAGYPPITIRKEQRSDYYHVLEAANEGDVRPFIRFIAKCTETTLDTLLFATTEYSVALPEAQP
# T3: HYPE (Homo sapiens, UniProt Q9BVA6)
# T3 construct: gene FICD; residues 103-445
# T3 sequence (Q9BVA6 103-445): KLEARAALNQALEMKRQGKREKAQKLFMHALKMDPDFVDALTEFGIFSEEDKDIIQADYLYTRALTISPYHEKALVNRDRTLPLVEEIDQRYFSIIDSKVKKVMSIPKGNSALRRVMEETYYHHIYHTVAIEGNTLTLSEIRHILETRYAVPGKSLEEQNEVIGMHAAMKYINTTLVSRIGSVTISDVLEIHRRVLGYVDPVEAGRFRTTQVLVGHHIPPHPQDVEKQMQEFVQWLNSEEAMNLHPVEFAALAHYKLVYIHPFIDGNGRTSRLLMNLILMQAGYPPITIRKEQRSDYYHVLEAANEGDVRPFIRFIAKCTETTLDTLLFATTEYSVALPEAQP
# B1: HYPE variant (103–434), containing TPR-motifs, linker, and FIC domain (domain or fragment, human, UniProt Q9BVA6 103-434, looked up)
# chain: KLEARAALNQALEMKRQGKREKAQKLFMHALKMDPDFVDALTEFGIFSEEDKDIIQADYLYTRALTISPYHEKALVNRDRTLPLVEEIDQRYFSIIDSKVKKVMSIPKGNSALRRVMEETYYHHIYHTVAIEGNTLTLSEIRHILETRYAVPGKSLEEQNEVIGMHAAMKYINTTLVSRIGSVTISDVLEIHRRVLGYVDPVEAGRFRTTQVLVGHHIPPHPQDVEKQMQEFVQWLNSEEAMNLHPVEFAALAHYKLVYIHPFIDGNGRTSRLLMNLILMQAGYPPITIRKEQRSDYYHVLEAANEGDVRPFIRFIAKCTETTLDTLLFATT
# notes: human HYPE (FICD), residues 103-434: TPR-motifs (105-135, 140-170), linker (170-215), FIC domain (215-432); cloned into pOPINS; wild type; also called HYPE (103-434); source: E. coli C41(DE3), purified (Ni2+ chelating, Q-sepharose, gel filtration)
# B2: HYPE (172–445), containing the linker helix and FIC domain (domain or fragment, human, UniProt Q9BVA6 172-445, looked up)
# chain: YHEKALVNRDRTLPLVEEIDQRYFSIIDSKVKKVMSIPKGNSALRRVMEETYYHHIYHTVAIEGNTLTLSEIRHILETRYAVPGKSLEEQNEVIGMHAAMKYINTTLVSRIGSVTISDVLEIHRRVLGYVDPVEAGRFRTTQVLVGHHIPPHPQDVEKQMQEFVQWLNSEEAMNLHPVEFAALAHYKLVYIHPFIDGNGRTSRLLMNLILMQAGYPPITIRKEQRSDYYHVLEAANEGDVRPFIRFIAKCTETTLDTLLFATTEYSVALPEAQP
# notes: human HYPE (FICD), residues 172-445: linker helix and FIC domain; cloned into pOPINS; also called ΔTPR; HYPE lacking TPR-motifs; source: E. coli C41(DE3), purified (Ni2+ chelating, Q-sepharose, gel filtration)
# Experiments:
# [1] = target: T1, HYPE; assay: differential scanning fluorimetry (thermal shift), […] ligand; format: binding
# [2] = target: T2, HYPE; assay: crystal structure ([…] Å); thermal shift; format: binding; set-up: gene FICD; TPR-motifs, linker and FIC domain (lacking first 102 residues)
# [3] = target: T3, HYPE; assay: ITC; crystal structure; thermal shift; format: binding
# [4] = target: T2, HYPE; assay: ITC; crystal structure; thermal shift; format: binding; set-up: gene FICD; residues 103-445
# [5] = target: wild-type HYPE construct lacking the first 102 amino-acid residues (construct used for crystallization) (human) (UniProt Q9BVA6); assay: SAXS; small angle X-ray scattering of soluble HYPE constructs in solution; methods in Supplemental Experimental Procedures
# [6] = target: the molecule itself; assay: SEC; analytical gel filtration of purified HYPE constructs
molecule,measurement,setting,value
O=c1ccn([C@@H]2O[C@H](CO[P@@](=O)(O)O[P@@](=O)(O)OP(=O)(O)O)[C@@H](O)[C@H]2O)c(=O)[nH]1 (stereo in doubt) [uridine triphosphate],"differential scanning fluorimetry (thermal shift), 200 μM ligand",[1],a less strong binding of cytidine triphosphate and uridine triphosphate (Figure 6A)
Nc1ncnc2c1ncn2C1OC(COP(=O)(O)OP(=O)(O)OP(=O)(O)O)C(O)C1O (centres unmarked) [ATP],crystal structure (2.7 Å); thermal shift,[2],we have also obtained structures with the ATP cofactor bound to an E234G variant
Nc1ncnc2c1ncn2[C@@H]1O[C@H](COP(=O)(O)OP(=O)(O)O)[C@@H](O)[C@H]1O [ADP],Kd,[3],1500 nM
same,Kd,[4],160 nM
Nc1nc2c(ncn2[C@@H]2O[C@H](COP(=O)(O)OP(=O)(O)OP(=O)(O)O)[C@@H](O)[C@H]2O)c(=O)[nH]1 [guanosine-5'-triphosphate],"differential scanning fluorimetry (thermal shift), 200 μM ligand",[1],showed similar binding of ATP and guanosine-5'-triphosphate
wild-type HYPE construct lacking the first 102 amino-acid residues (construct used for crystallization) (from UniProt Q9BVA6 103-458) (domain or fragment),stoichiometry N,[5],2
B1,stoichiometry N,[6],2
B2,binding result,[6],binds
